Laboratory results from PubChem BioAssay AID1845208 (Molecular Pharmacology Branch, DTP, NCI, 2023).

Tested on: NCI-H196 SCLC complex tumor spheroid viability
Assay: Anticancer human tumor NCI-H196 cell line growth inhibition;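 further: spheroids exposed to compounds for 7 days before readout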;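 on viability, T/C: 100% = DMSO vehicle control wells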
Details: for IC50: curve of first compound; for viability, T/C: stronger effect = lower value
How it was run: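 Complex spheroids of malignant cells with endothelial cells and mesenchymal stem cells; agents alone or combined, from near clinical Cmax (or 10 microM if unknown) down in half-log steps, 0.25% DMSO final.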

[1] = second compound 1 µM, first compound 0.00949 µM
[2] = second compound 1 µM, first compound 0.03 µM
[3] = second compound 1 µM, first compound 0.0949 µM
[4] = second compound 1 µM, first compound 0.3 µM
[5] = second compound 1 µM, first compound 0.949 µM
[6] = second compound 1 µM, first compound 3 µM
[7] = second compound 3.16 µM, first compound 0.00949 µM
[8] = second compound 3.16 µM, first compound 0.03 µM
[9] = second compound 3.16 µM, first compound 0.0949 µM
[10] = second compound 3.16 µM, first compound 0.3 µM
[11] = second compound 3.16 µM, first compound 0.949 µM
[12] = second compound 3.16 µM, first compound 3 µM
[13] = second compound 10 µM, first compound 0.00949 µM
[14] = second compound 10 µM, first compound 0.03 µM
[15] = second compound 10 µM, first compound 0.0949 µM
[16] = second compound 10 µM, first compound 0.3 µM
[17] = second compound 10 µM, first compound 0.949 µM
[18] = second compound 10 µM, first compound 3 µM
[19] = second compound 31.6 µM, first compound 0.00949 µM
[20] = second compound 31.6 µM, first compound 0.03 µM
[21] = second compound 31.6 µM, first compound 0.0949 µM
[22] = second compound 31.6 µM, first compound 0.3 µM
[23] = second compound 31.6 µM, first compound 0.949 µM
[24] = second compound 31.6 µM, first compound 3 µM
[25] = second compound 100 µM, first compound 0.00949 µM
[26] = second compound 100 µM, first compound 0.03 µM
[27] = second compound 100 µM, first compound 0.0949 µM
[28] = second compound 100 µM, first compound 0.3 µM
[29] = second compound 100 µM, first compound 0.949 µM
[30] = second compound 100 µM, first compound 3 µM

Row | SMILES | IC50 (second compound 1 µM) [µM] | IC50 (second compound 3.16 µM) [µM] | IC50 (second compound 10 µM) [µM] | IC50 (second compound 31.6 µM) [µM] | IC50 (second compound 100 µM) [µM] | viability, T/C [1] [%] | viability, T/C [2] [%] | viability, T/C [3] [%] | viability, T/C [4] [%] | viability, T/C [5] [%] | viability, T/C [6] [%] | viability, T/C [7] [%] | viability, T/C [8] [%] | viability, T/C [9] [%] | viability, T/C [10] [%] | viability, T/C [11] [%] | viability, T/C [12] [%] | viability, T/C [13] [%] | viability, T/C [14] [%] | viability, T/C [15] [%] | also measured
1 | CNCc1ccc(-c2cc(-c3nc(-c4ccc(S(=O)(=O)C(C)C)cc4)cnc3N)on2)cc1 + Cn1nnc2c(C(N)=O)ncn2c1=O | > 3 | > 3 | > 3 | > 3 | > 3 | 100 | 92.1 | 106 | 99.5 | 84.1 | 85.2 | 98.7 | 97.4 | 104 | 105 | 88.1 | 88.2 | 100 | 96.3 | 105 | viability, T/C [16]: 99.5%; viability, T/C [17]: 95.3%; viability, T/C [18]: 84.4%; viability, T/C [19]: 102%; viability, T/C [20]: 113%; viability, T/C [21]: 106%; viability, T/C [22]: 105%; viability, T/C [23]: 91.4%; viability, T/C [24]: 82.9%; viability, T/C [25]: 107%; viability, T/C [26]: 109%; viability, T/C [27]: 112%; viability, T/C [28]: 99.6%; viability, T/C [29]: 88.3%; viability, T/C [30]: 84.3%
2 | Cc1sc2c(c1C)C(c1ccc(Cl)cc1)=NC(CC(=O)Nc1ccc(O)cc1)c1nnc(C)n1-2 (stereo not given) + Cn1nnc2c(C(N)=O)ncn2c1=O | 0.589 | 0.669 | 0.716 | 1.34 | 2.45 | 102 | 99.5 | 86.6 | 68.1 | 37.3 | 21.1 | 103 | 97.4 | 98.8 | 75.5 | 39 | 23.3 | 105 | 102 | 91.6 | viability, T/C [16]: 69.1%; viability, T/C [17]: 44%; viability, T/C [18]: 27.6%; viability, T/C [19]: 108%; viability, T/C [20]: 106%; viability, T/C [21]: 93.7%; viability, T/C [22]: 87.1%; viability, T/C [23]: 54.5%; viability, T/C [24]: 34.9%; viability, T/C [25]: 115%; viability, T/C [26]: 105%; viability, T/C [27]: 103%; viability, T/C [28]: 85%; viability, T/C [29]: 67%; viability, T/C [30]: 46.4%
